Test results reported in the supplement of paper PMC13380429.

Columns and labels:
Conditions in all cases: 72 h
Caco-2 [1] = test: cell viability relative to DMSO; higher = less toxic
Calu-3 [2] = test: as above
HepG2 [3] = test: as above
U2OS [4] = test: as above
Vero E6 [5] = test: as above
Caco-2 [6] = test: relative viability EC50 (midpoint between 100% and the lowest measured viability); higher = less toxic
Calu-3 [7] = test: as above
HepG2 [8] = test: as above
U2OS [9] = test: as above
Vero E6 [10] = test: as above
Caco-2 [11] = test: drug sensitivity score (DSS) for viability; higher = more toxic; extreme values may be limits of the assay
Calu-3 [12] = test: as above
HepG2 [13] = test: as above
U2OS [14] = test: as above
Vero E6 [15] = test: as above

Row | SMILES | cell viability (Caco-2 [1]; 1 nM) [%] | cell viability (Caco-2 [1]; 10 nM) [%] | cell viability (Caco-2 [1]; 100 nM) [%] | cell viability (Caco-2 [1]; 1000 nM) [%] | cell viability (Caco-2 [1]; 10000 nM) [%] | cell viability (Calu-3 [2]; 1 nM) [%] | cell viability (Calu-3 [2]; 10 nM) [%] | cell viability (Calu-3 [2]; 100 nM) [%] | cell viability (Calu-3 [2]; 1000 nM) [%] | cell viability (Calu-3 [2]; 10000 nM) [%] | cell viability (HepG2 [3]; 1 nM) [%] | cell viability (HepG2 [3]; 10 nM) [%] | cell viability (HepG2 [3]; 100 nM) [%] | cell viability (HepG2 [3]; 1000 nM) [%] | cell viability (HepG2 [3]; 10000 nM) [%] | cell viability (U2OS [4]; 1 nM) [%] | cell viability (U2OS [4]; 10 nM) [%] | cell viability (U2OS [4]; 100 nM) [%] | cell viability (U2OS [4]; 1000 nM) [%] | cell viability (U2OS [4]; 10000 nM) [%] | cell viability (Vero E6 [5]; 1 nM) [%] | cell viability (Vero E6 [5]; 10 nM) [%] | cell viability (Vero E6 [5]; 100 nM) [%] | cell viability (Vero E6 [5]; 1000 nM) [%] | cell viability (Vero E6 [5]; 10000 nM) [%] | relative viability EC50 (Caco-2 [6]) [µM] | relative viability EC50 (Calu-3 [7]) [µM] | relative viability EC50 (HepG2 [8]) [µM] | relative viability EC50 (U2OS [9]) [µM] | relative viability EC50 (Vero E6 [10]) [µM] | drug sensitivity score (Caco-2 [11]) | drug sensitivity score (Calu-3 [12]) | drug sensitivity score (HepG2 [13]) | drug sensitivity score (U2OS [14]) | drug sensitivity score (Vero E6 [15])
1 | O=C(NCc1ccccc1)OCCO [buramate] | 96.1 | 105 | 89.9 | 102 | 88.1 | 99.7 | 97.3 | 95.8 | 94.9 | 91.5 | 106 | 97.8 | 104 | 86.8 | 85.8 | 99.5 | 100 | 99.7 | 100 | 100 | 100 | 102 | 111 | 92 | 101 | > 10 | > 10 | > 10 | > 10 | > 10 | 0 | 0 | 1 | 0 | 0
2 | C[N+](C)(C)CCCCCNCC12CC3CC(CC(C3)C1)C2 [IEM1460] | 96.2 | 103 | 95 | 99.6 | 88.1 | 91.1 | 104 | 96.1 | 98.2 | 98.4 | 101 | 85.2 | 104 | 93.9 | 106 | 94.1 | 102 | 99 | 103 | 95.7 | 105 | 91 | 105 | 92.5 | 103 | > 10 | > 10 | > 10 | > 10 | > 10 | 0.1 | 0 | 0 | 0 | 0
3 | CN(C)Cc1cccc(N/C(=C2\C(=O)Nc3cc(C(N)=O)ccc32)c2ccccc2)c1 | 102 | 99.7 | 100 | 88.3 | 107 | 103 | 92.7 | 96.3 | 95.6 | 96 | 106 | 105 | 89.4 | 112 | 112 | 96.6 | 94.8 | 99 | 93.5 | 101 | 98.3 | 102 | 95.6 | 96.2 | 102 | > 10 | > 10 | > 10 | > 10 | > 10 | 0 | 0 | 0 | 0 | 0
